biological target: HEK293 cells with stable expression of the GRIN1 gene and tetracycline-inducible expression of the GRIN2B gene (NMDA receptor, NR2B) (Homo sapiens, UniProt Q13224); test: Fluo-8 Ca2+ flux assay: reversal of Ro 25-6981-mediated suppression of the Ca2+ response to co-agonist (glutamate/glycine); format: cell-based; settings: reversal of the Ro 25-6981 suppression of the Ca2+ response to co-agonist (glutamate/glycine); also: test concentration or dose not given here
Sequence (Q13224 27-1484, other chains not shown): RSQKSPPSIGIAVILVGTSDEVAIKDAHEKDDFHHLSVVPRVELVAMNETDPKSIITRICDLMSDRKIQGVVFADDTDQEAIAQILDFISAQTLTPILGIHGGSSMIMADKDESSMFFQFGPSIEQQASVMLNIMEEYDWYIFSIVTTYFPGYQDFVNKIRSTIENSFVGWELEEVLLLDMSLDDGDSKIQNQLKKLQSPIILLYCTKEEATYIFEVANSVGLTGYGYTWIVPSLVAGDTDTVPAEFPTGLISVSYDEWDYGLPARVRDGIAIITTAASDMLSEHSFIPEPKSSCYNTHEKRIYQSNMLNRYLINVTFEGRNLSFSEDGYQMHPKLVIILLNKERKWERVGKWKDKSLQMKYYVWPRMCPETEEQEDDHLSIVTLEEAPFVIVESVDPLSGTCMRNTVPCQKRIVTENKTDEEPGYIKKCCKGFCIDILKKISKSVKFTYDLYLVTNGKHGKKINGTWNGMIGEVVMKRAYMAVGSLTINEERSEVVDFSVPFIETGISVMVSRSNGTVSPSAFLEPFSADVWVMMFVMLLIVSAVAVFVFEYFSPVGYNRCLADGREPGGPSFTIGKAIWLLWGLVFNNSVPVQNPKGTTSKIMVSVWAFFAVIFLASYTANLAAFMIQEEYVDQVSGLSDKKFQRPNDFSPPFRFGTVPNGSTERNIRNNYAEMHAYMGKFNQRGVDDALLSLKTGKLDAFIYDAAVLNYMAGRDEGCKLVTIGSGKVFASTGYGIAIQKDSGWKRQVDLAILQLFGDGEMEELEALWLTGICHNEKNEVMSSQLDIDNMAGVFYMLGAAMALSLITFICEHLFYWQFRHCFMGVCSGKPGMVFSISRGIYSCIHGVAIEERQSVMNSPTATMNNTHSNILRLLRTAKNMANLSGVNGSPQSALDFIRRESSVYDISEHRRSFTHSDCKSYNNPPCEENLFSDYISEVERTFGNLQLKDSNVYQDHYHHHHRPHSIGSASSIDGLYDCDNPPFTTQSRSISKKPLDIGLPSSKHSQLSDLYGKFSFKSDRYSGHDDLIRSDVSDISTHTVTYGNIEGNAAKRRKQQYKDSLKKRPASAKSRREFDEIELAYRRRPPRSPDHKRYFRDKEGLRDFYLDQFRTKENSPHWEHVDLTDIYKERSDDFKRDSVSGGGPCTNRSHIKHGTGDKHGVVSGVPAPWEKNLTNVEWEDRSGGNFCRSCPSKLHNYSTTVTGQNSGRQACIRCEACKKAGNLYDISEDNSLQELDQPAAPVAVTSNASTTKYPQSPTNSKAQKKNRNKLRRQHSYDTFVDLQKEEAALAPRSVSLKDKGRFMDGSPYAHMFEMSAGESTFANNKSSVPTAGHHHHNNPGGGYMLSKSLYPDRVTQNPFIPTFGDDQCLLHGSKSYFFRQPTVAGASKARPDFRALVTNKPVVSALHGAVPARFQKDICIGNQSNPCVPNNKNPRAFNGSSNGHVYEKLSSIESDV

Going from O=C(Cn1ccc2scc(-c3ccc(F)c(C(F)(F)F)c3)c2c1=O)N1CC2(CC2)C1 [Example 80, 3-(4-fluoro-3-(trifluoromethyl)phen-yl)-5-(2-oxo-2-(5-azaspiro[2.3]hexan-5-yl)ethyl)thieno[3,2-c]pyridin-4(5H)-one] to CC1(N)CN(C(=O)Cn2ccc3scc(-c4ccc(F)c(C(F)(F)F)c4)c3c2=O)C1 [Example 96, 5-(2-(3-amino-3-methylazetidin-1-yl)-2-oxoethyl)-3-(4-fluoro-3-(trifluoromethyl)phenyl)thieno[3,2-c]pyridin-4(5H)-one], the “Response Recovered (%)” value falls from 64% to 43%.

O=C(Cn1ccc2scc(-c3ccc(F)c(Cl)c3)c2c1=O)N1CC(F)(CF)C1 [Example 81, 3-(3-chloro-4-fluorophenyl)-5-(2-(3-fluoro-3-(fluoromethyl)azetidin-1-yl)-2-oxoethyl)thieno[3,2-c]pyridin-4(5H)-one] and O=C(Cn1ccc2scc(-c3ccc(Cl)c(Cl)c3)c2c1=O)N1CC(F)(CF)C1 [Example 82, 3-(3,4-dichlorophenyl)-5-(2-(3-fluoro-3-(fluoromethyl)azetidin-1-yl)-2-oxoethyl)thieno[3,2-c]pyridin-4(5H)-one] are the same in “Response Recovered (%)” value: 140% for the first, 140% for the second.

First: O=C(Cn1ccc2scc(-c3ccc(F)c(C(F)(F)F)c3)c2c1=O)N1CC(F)(CF)C1 [Example 83, 5-(2-(3-fluoro-3-(fluoromethyl)azetidin-1-yl)-2-oxoethyl)-3-(4-fluoro-3-(trifluoromethyl)phen-yl)thieno[3,2-c]pyridin-4(5H)-one]
Second: Cc1cc(-c2csc3ccn(CC(=O)N4CC(F)(CF)C4)c(=O)c23)cnc1F [Example 89, 5-(2-(3-fluoro-3-(fluoromethyl)azetidin-1-yl)-2-oxoethyl)-3-(6-fluoro-5-methylpyridin-3-yl)thieno[3,2-c]pyridin-4(5H)-one]
The “Response Recovered (%)” value of the first is higher: 140% for the first, 16% for the second.

Going from Cc1cc(-c2csc3ccn(CC(=O)N4CC(C)(F)C4)c(=O)c23)cnc1Cl [Example 84, 3-(6-chloro-5-methylpyridin-3-yl)-5-(2-(3-fluoro-3-methylazetidin-1-yl)-2-oxoethyl)thieno[3,2-c]pyridin-4(5H)-one] to CCC1(F)CN(C(=O)Cn2ccc3scc(-c4cnc(Cl)c(C)c4)c3c2=O)C1 [Example 85, 3-(6-chloro-5-methylpyridin-3-yl)-5-(2-(3-ethyl-3-fluoroazetidin-1-yl)-2-oxoethyl)thieno[3,2-c]pyridin-4(5H)-one], the “Response Recovered (%)” value falls from 39% to 16%.

Going from Cc1cc(-c2csc3ccn(CC(=O)N4CC(F)(CF)C4)c(=O)c23)cnc1Cl [Example 86, 3-(6-chloro-5-methylpyridin-3-yl)-5-(2-(3-fluoro-3-(fluoromethyl)azetidin-1-yl)-2-oxoethyl)thieno[3,2-c]pyridin-4(5H)-one] to Cc1ncc(-c2csc3ccn(CC(=O)N4CC(F)(CF)C4)c(=O)c23)cc1Cl [Example 92, 3-(5-chloro-6-methylpyridin-3-yl)-5-(2-(3-fluoro-3-(fluoromethyl)azetidin-1-yl)-2-oxoethyl)thieno[3,2-c]pyridin-4(5H)-one], the “Response Recovered (%)” value rises from 17% to 70%.

First: Cc1cc(-c2csc3ccn(CC(=O)N4CC(C)(F)C4)c(=O)c23)cnc1F [Example 87, 5-(2-(3-fluoro-3-methylazetidin-1-yl)-2-oxoethyl)-3-(6-fluoro-5-methylpyridin-3-yl)thieno[3,2-c]pyridin-4(5H)-one]
Second: CCC1(F)CN(C(=O)Cn2ccc3scc(-c4cnc(F)c(C)c4)c3c2=O)C1 [Example 88, 5-(2-(3-ethyl-3-fluoroazetidin-1-yl)-2-oxoethyl)-3-(6-fluoro-5-methylpyridin-3-yl)thieno[3,2-c]pyridin-4(5H)-one]
The “Response Recovered (%)” value of the first is lower: −4.2% for the first, 20% for the second.

First: Cc1ncc(-c2csc3ccn(CC(=O)N4CC(C)(F)C4)c(=O)c23)cc1Cl [Example 90, 3-(5-chloro-6-methylpyridin-3-yl)-5-(2-(3-fluoro-3-methylazetidin-1-yl)-2-oxoethyl)thieno[3,2-c]pyridin-4(5H)-one]
Second: CCC1(F)CN(C(=O)Cn2ccc3scc(-c4cnc(C)c(Cl)c4)c3c2=O)C1 [Example 91, 3-(5-chloro-6-methylpyridin-3-yl)-5-(2-(3-ethyl-3-fluoroazetidin-1-yl)-2-oxoethyl)thieno[3,2-c]pyridin-4(5H)-one]
The “Response Recovered (%)” value of the first is higher: 75% for the first, 74% for the second.

Compared with CN(CC(F)(F)F)C(=O)Cn1ccc2scc(-c3ccc(F)c(Cl)c3)c2c1=O [Example 93, 2-(3-(3-chloro-4-fluorophenyl)-4-oxothieno[3,2-c]pyridin-5(4H)-yl)-N-methyl-N-(2,2,2-trifluoroethyl)acetamide], CC1(N)CN(C(=O)Cn2ccc3scc(-c4ccc(F)c(Cl)c4)c3c2=O)C1 [Example 95] is lower in “Response Recovered (%)” value: 4.1% for the first, 1% for the second.

Going from CC1(N)CN(C(=O)Cn2ccc3scc(-c4ccc(Cl)c(Cl)c4)c3c2=O)C1 [Example 94, 5-(2-(3-amino-3-methylazetidin-1-yl)-2-oxoethyl)-3-(3,4-dichlorophenyl)thieno[3,2-c]pyridin-4(5H)-one] to O=C(Cn1ccc2scc(-c3ccc(F)c(Cl)c3)c2c1=O)N1CC2(CCN2)C1 [Example 97, 3-(3-chloro-4-fluorophenyl)-5-(2-oxo-2-(1,6-diazaspiro[3.3]heptan-6-yl)ethyl)thieno[3,2-c]pyridin-4(5H)-one 2,2,2-trifluoroacetate], the “Response Recovered (%)” value falls from 3.1% to 2.8%.

Compared with O=C(Cn1cc(Br)c2scc(-c3ccc(Cl)c(C(F)(F)F)c3)c2c1=O)N1CCCC1 [Example 98, 7-bromo-3-(4-chloro-3-(trifluoromethyl)phenyl)-5-(2-oxo-2-(pyrrolidin-1-yl)ethyl)thieno[3,2-c]pyridin-4(5H)-one], N#Cc1cn(CC(=O)N2CCCC2)c(=O)c2c(-c3ccc(Cl)c(C(F)(F)F)c3)csc12 [Example 99, 3-(4-chloro-3-(trifluoromethyl)phenyl)-4-oxo-5-(2-oxo-2-(pyrrolidin-1-yl)ethyl)-4,5-dihydrothieno[3,2-c]pyridine-7-carbonitrile] is lower in “Response Recovered (%)” value: 40% for the first, 37% for the second.

First: N#Cc1cn(CC(=O)N2CCCC2)c(=O)c2c(-c3ccc(F)c(C(F)(F)F)c3)csc12 [Example 100, 3-(4-fluoro-3-(trifluoromethyl)phenyl)-4-oxo-5-(2-oxo-2-(pyrrolidin-1-yl)ethyl)-4,5-dihydrothieno[3,2-c]pyridine-7-carbonitrile]
Second: O=C(Cn1cc(C2CC2)c2scc(-c3ccc(Cl)c(C(F)(F)F)c3)c2c1=O)N1CCCC1 [Example 101, 3-(4-chloro-3-(trifluoromethyl)phenyl)-7-cyclopropyl-5-(2-oxo-2-(pyrrolidin-1-yl)ethyl)thieno[3,2-c]pyridin-4(5H)-one]
The “Response Recovered (%)” value of the first is higher: 34% for the first, 29% for the second.

With O=C(Cn1cc(-c2ccccc2)c2scc(-c3ccc(Cl)c(C(F)(F)F)c3)c2c1=O)N1CCCC1 [Example 102, 3-(4-chloro-3-(trifluoromethyl)phenyl)-5-(2-oxo-2-(pyrrolidin-1-yl)ethyl)-7-phenylthieno[3,2-c]pyridin-4(5H)-one] the “Response Recovered (%)” value was 23%.
